Assay results taken from patent US10196345B2, “MAO-B selective inhibitor compounds, pharmaceutical compositions thereof and uses thereof” (The University of British Columbia, priority 2013, dated 2019).

Tests used:
[1] = system: Madin Darby canine kidney (MDCK-I) cells; assay: TEER in MDCK-I cells; format: cell-based; settings: for TEER, LPS+deprenyl vs control: MDCK-I cells, Transwell, LPS range, 40 μM deprenyl; for 144-hour barrier (TEER) vs control: MDCK-I, treated at 72 hours; for effect on TEER (MAO A, B, AB inhibitors): no concentration given
Procedure: In each case, TEER was measured every 48 hours after treatment.
Transwell cultures were treated at 72 hours (T) post-cell plating.
Transepithelial Resistance (TER) is a common method to screen for barrier integrity. […] Fluorescein isothiocyanate conjugated 10 kD dextran (Invitrogen™) will be added to the apical Transwell™ compartment, fixed, and examined for dextran permeation (Umeda et al., 2006).
Amphiregulin (AR) is an EGFR binding ligand and may play a pivotal role in the previously described signaling axis (see FIGS. 15-17). […] (ii) GI [intestinal epithelial cell (IEC)] and (iii) classical [Madin-Darby canine kidney (MDCK-1)].

[2] = stability assay in human liver microsomes; settings: after 60 minutes at room temperature
[3] = molecular target: T1, recombinant human MAO-A (Homo sapiens, UniProt P21397); assay: Cell-free Fluorescent Monoamine Oxidase A&B Detection Assay, MAO-A; format: biochemical; settings: read-out: IC90 MAO-A (μM)
T1 sequence (P21397 1-527): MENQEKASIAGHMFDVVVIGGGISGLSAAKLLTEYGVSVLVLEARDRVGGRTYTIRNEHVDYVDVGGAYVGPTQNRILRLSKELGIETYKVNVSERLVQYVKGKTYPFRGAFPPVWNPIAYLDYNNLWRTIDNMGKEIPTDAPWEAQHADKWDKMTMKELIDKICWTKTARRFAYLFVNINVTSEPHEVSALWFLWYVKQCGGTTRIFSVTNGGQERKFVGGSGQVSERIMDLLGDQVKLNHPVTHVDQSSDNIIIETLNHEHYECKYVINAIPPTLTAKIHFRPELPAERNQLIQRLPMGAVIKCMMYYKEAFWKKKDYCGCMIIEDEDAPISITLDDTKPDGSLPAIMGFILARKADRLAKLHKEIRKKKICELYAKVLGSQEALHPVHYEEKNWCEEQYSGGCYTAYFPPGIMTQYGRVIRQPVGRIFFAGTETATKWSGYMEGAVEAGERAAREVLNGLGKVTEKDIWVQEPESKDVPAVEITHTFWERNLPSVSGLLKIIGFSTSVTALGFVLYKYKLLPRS
Procedure: The assay was repeated to confirm data.
MAO B specific inhibitory activity and selectivity over MAO A is assayed using a commercial kit [Fluoro MAO A and B detection kit (Cell Technology Inc™)]. This kit uses a non-fluorescent detection reagent to measure H2O2 released from the conversion of an MAO A and MAO B substrate specific to its aldehyde. Furthermore, H2O2 oxidizes the detection reagent in a 1:1 stoichiometry to produce a fluorescent product (resorufin). […] This information is then provided to the medicinal chemists to help direct synthesis of subsequent iterations.

[4] = system: C. rodentium infections; assay: seven-day C. rodentium infection model; format: in vivo
[5] = system: Porcine ligament epithelial (PLE) cells; assay: TEER, LPS-induced barrier loss, PLE cells; format: cell-based; settings: Transwell, LPS challenge at 72 hours
Procedure: (§1) In each case, TEER was measured every 48 hours after treatment. Statistically significant differences were identified.
(§2) Transepithelial Resistance (TER) is a common method to screen for barrier integrity. […] For select compounds barrier integrity and protection is also measured using tracer studies because TER accuracy in examining TJ integrity has recently come into question (Van Itallie et al., 2008). Fluorescein isothiocyanate conjugated 10 kD dextran (Invitrogen™) will be added to the apical Transwell™ compartment, fixed, and examined for dextran permeation (Umeda et al., 2006). We expect control and deprenyl-treated cells with an intact barrier to maintain the tracer at the apical membrane region, whereas the breached monolayers will show tracer permeation between the cells.

[6] = system: human intestinal microvascular endothelial cells (HIMEC); assay: IL-8, IL-6 and TNFα protein expression in LPS-treated HIMEC; format: cell-based; settings: 1000 ng/mL LPS + 10 μM compound, 1 or 3 hrs
Procedure: Human microvascular endothelial cells were seeded at 37500 cells/cm^2 on a fibronectin-coated polystyrene 96-well plate in MCDB 131 medium (#10372-019, Gibco™) containing 20% FBS. On day 2 after seeding, wells were replaced with fresh media containing 2.5% FBS. […] Supernatants of the treated cells were analyzed for pro- and anti-inflammatory cytokine proteins using the Human Proinflammatory 7-Plex Ultra-Sensitive Kit (K15008C, MSD) measured by the Sector Imager 2400A (MSD). Left panel: Absolute concentrations of IL-8, IL-6 and TNFα protein in supernatants of cells treated with control (media only) or increasing concentrations of LPS. Right panel: Absolute IL-8, IL-6 or TNFα concentrations induced or attenuated by 1000 ng/mL LPS±the novel MAO B inhibitors. Values were determined by subtracting supernatant cytokine concentrations of control from supernatant cytokine concentrations of treated cells. Results are expressed as mean±standard deviation (n=3). Statistical significance was determined using a one-way ANOVA and Tukey post-hoc test in SPSS (IBM) comparing control and LPS (left panel) or LPS and novel MAO B inhibitors (right panel). *p<0.05, **p<0.001

[7] = system: DSS induced colitis in C57BL/6 mice; assay: 3% DSS induced colitis, claudin-3 localization; format: in vivo; settings: 3% DSS in drinking water, day 7, C57BL/6 mice
Text: FIGS. 21A and B show a 3% DSS induced colitis and protects epithelial cell-cell claudin-3 localization. […] (A). […] (B). […] Increased cell infiltrate is evident in the DSS-treated animals by the DAPI (blue) staining.

[8] = system: IL-8 protein expression in Caco-2 cells; assay: IL-8 protein expression in LPS- and TNFα-treated Caco-2 cells; format: cell-based, human; settings: Caco-2, 1 μg/mL LPS or 50 ng/mL TNFα + 20 μM compound, 4, 12 or 24 h
Procedure: Caco-2 cells were seeded at 83300 cells/cm^2 on a polystyrene 96-well plate in DMEM medium (#10313-021, Gibco™) containing 10% FBS. On day 5 after seeding, wells were replaced with fresh media containing 2.5% FBS. […] Supernatants of the treated cells were analyzed for pro- and anti-inflammatory cytokine proteins using the Human Proinflammatory 7-Plex Ultra-Sensitive Kit™ (K15008C, MSD™) measured by the Sector Imager 2400A (MSD™). Left panel: Absolute concentrations of IL-8 protein in supernatants of cells treated with control (media only), 1 μg/mL LPS or 50 ng/mL TNFα. […] Values were determined by subtracting supernatant cytokine concentrations of control from supernatant cytokine concentrations of treated cells. Results are expressed as mean±standard deviation (n=3).

[9] = in vitro BBB permeability in MDCK-WT cells; settings: dog, MDCK
Text: Wildtype Madin-Darby canine cells (MDCK-WT) were used to predict CNS permeability of compounds PS-RG0103, PS-RG0216, PS-RG0245 and PS-AD0191. […] J Allergy Clin Immunol. 1990; 86(6 pt 2): p. 1025-8.
Novel MAO B inhibitors selected based on the above screening program will be screened using an in vitro model of blood brain barrier (BBB). Madin-Darby canine kidney (MDCK-WT) and MDCK cells transfected with the human MDR1 gene (MDCK-MDR1) are well established in vitro models used to predict a compound's ability to permeate the blood brain barrier (BBB). […] Apparent permeability (Papp), Efflux ratio (Papp B-A/Papp A-B), as well as the Net flux ratio (Efflux ratioMDCK-MDR1/Efflux ratioMDCK-WT) can be calculated to identify compound BBB permeability and identify compounds that are substrates of P-gp.

[10] = stability assay in mouse liver microsomes; settings: after 60 minutes at room temperature
[11] = mouse hepatocyte stability assay; settings: after 60 minutes at room temperature
[12] = system: rat intestinal epithelial (IEC-6) cells; assay: TEER, LPS-induced barrier loss, IEC-6 cells; format: cell-based; settings: Transwell, LPS challenge at 72 hours
Procedure: as §1, §2

[13] = system: MAO activity in adipocytes; settings: cited from earlier work
[14] = system: rat periodontal disease model; settings: cited from earlier work
[15] = system: AR protein secretion; assay: amphiregulin (AR) protein secretion, MDCK-I cells; format: cell-based, canine; settings: no concentration given
[16] = obese and non-obese rats; cited from earlier work
[17] = seven-day C. rodentium infection, preliminary

C#CCN(C)[C@H](C)Cc1ccccc1 [Deprenyl]
TEER, LPS+deprenyl vs control [1]: rescues LPS reduction of TEER
TEER, LPS+deprenyl vs control ([1]; listed as deprenyl): significantly induced TEER above control
TEER, co-treatment with H2O2 ([1]; MDCK-I on Transwell membranes, H2O2): increased TEER significantly above the control
144-hour barrier (TEER) vs control ([1]; 5 μm inhibitor): increased over control
144-hour barrier (TEER) vs control ([1]; 40 μm inhibitor): increased over control
effect on TEER (MAO A, B, AB inhibitors) [1]: increased TEER
compound remaining in human microsome [2]: 15%
IC90 [3]: 9.38 µM
bacterial growth rates ([4]; C. rodentium): did not influence bacterial growth rates
TJ protein localization at the cell periphery [4, 17]: intact
hyperplastic phenotype [4, 17]: not apparent
TEER, LPS+deprenyl vs control [5]: rescues LPS reduction of TEER
TEER, LPS+deprenyl vs control ([5]; listed as deprenyl): significantly induced TEER above control
IL-8, IL-6 and TNFα protein expression [6]: attenuation
claudin-3 localization [7]: better localized to epithelial cell-cell contacts
IL-8 protein expression [8]: attenuation of IL-8 protein expression
Papp [9]: 44 ± 2.5 ×10⁻⁶ cm/s
compound remaining in mouse microsome [10]: less than 2.5%
compound remaining, mouse hepatocyte stability [11]: less than 2.5%
TEER, LPS+deprenyl vs control [12]: rescues LPS reduction of TEER
TEER, LPS+deprenyl vs control ([12]; listed as deprenyl): significantly induced TEER above control

NNCCc1ccccc1 [phenelzine]
144-hour barrier (TEER) vs control ([1]; 5 μm inhibitor): increased over control
144-hour barrier (TEER) vs control ([1]; 40 μm inhibitor): increased over control
effect on TEER (MAO A, B, AB inhibitors) [1]: increased TEER
MAO activity in adipocytes [13]: inhibit MAO activity in adipocytes
histological indicators of periodontal disease ([14]; co-applied topically with LPS, rat): histological indicators of periodontal disease were reduced
local epithelial cell proliferation and migration, alveolar bone loss, PMN infiltration and systemic H2O2 ([14]; rat periodontal disease model, daily LPS): reduced
effect on AR expression/secretion (MAO A, B, AB inhibitors) [15]: reduced AR expression
MAO activity [16]: inhibited MAO activity
body weight gain [16]: diminished body weight gain
intra-abdominal adipose tissue [16]: reduced intra-abdominal adipose tissue
